# Assay results: patent US20090005406A1, “Cancer Treatment Method” (SMITHKLINE BEECHAM CORPORATION, priority 2005, published 2009)
# Marks after values point to notes of the source that are not given here.
# Tests used:
# [1] = Peak plasma concentration of pazopanib in the clinical study; format: in vivo; conditions: oral dosing, regardless of tumor type
# Protocol: (§1) Sixty-three patients (pts) with cancer were treated with pazopanib three times a week, once (qd) or twice (bid) daily in a dose escalation scheme. The amount and frequency of administration of pazopanib to a representative number of those pts is summarized below in Table 1. Pts were evaluated monthly and treated until disease progression or intolerable side effects. Clinical response was determined every 8 wks. Safety and pharmacodynamics were separately assessed.
# (§2) Preliminary representative patient data are shown below in Table 2.
# Solid Tumors = test: Clinical study of orally administered pazopanib in patients with solid tumors (clinical response); format: in vivo; parameters: key to Response: SD stable disease;; MR mixed response;; PR partial remission
# Protocol: as §1, §2
# [2] = patient with Adeno lung, 200-800 mg qd, oral
# [3] = patient with Chondrosarcoma, 400-800 mg qd, oral
# [4] = patient with Chondrosarcoma, 2000-800 mg qd, oral
# [5] = patient with GIST, 600-800 mg qd, oral
# [6] = patient with Hurthle Cell tumor, 50-800 mg qd, oral
# [7] = patient with Leiomyosarcoma, 50-800 mg qd, oral
# [8] = patient with Melanoma, 50-400 mg qd, oral
# [9] = patient with Neuroendocrine tumor, 300 mg bid, oral
# [10] = patient with Rectal carcinoid, 800 mg qd, oral
# [11] = patient with Renal cell carcinoma, 800 mg qd, oral, patient withdrawn from study
# [12] = patient with Renal cell carcinoma, 2000 mg qd, oral
# [13] = patient with Renal cell carcinoma, 1400-800 mg qd, oral
compound,measurement,setting,value
"Cc1ccc(Nc2nccc(N(C)c3ccc4c(C)n(C)nc4c3)n2)cc1S(N)(=O)=O [pazopanib, 5-({4-[(2,3-dimethyl-2H-indazol-6-yl)(methyl)amino]pyrimidin-2-yl}amino)-2-methylbenzenesulfonamide]",peak plasma concentrations of pazopanib in patients that demonstrated a clinical benefit,[1],≥ 40 µM
same,Duration on pazopanib (weeks),Solid Tumors; [2],55 weeks
same,Response,Solid Tumors; [2],SD
same,Duration on pazopanib (weeks),Solid Tumors; [3],31 weeks
same,Response,Solid Tumors; [3],SD
same,Duration on pazopanib (weeks),Solid Tumors; [4],90+ weeks
same,Response,Solid Tumors; [4],SD (MR)
same,Duration on pazopanib (weeks),Solid Tumors; [5],60 weeks
same,Response,Solid Tumors; [5],SD
same,Duration on pazopanib (weeks),Solid Tumors; [6],101 weeks
same,Response,Solid Tumors; [6],SD (MR)
same,Duration on pazopanib (weeks),Solid Tumors; [7],34 weeks
same,Response,Solid Tumors; [7],SD
same,Duration on pazopanib (weeks),Solid Tumors; [8],36 weeks
same,Response,Solid Tumors; [8],SD
same,Duration on pazopanib (weeks),Solid Tumors; [9],50+ weeks
same,Response,Solid Tumors; [9],MR
same,Duration on pazopanib (weeks),"Solid Tumors; patient with Neuroendocrine tumor, 1000 mg qd, oral",38 weeks
same,Response,"Solid Tumors; patient with Neuroendocrine tumor, 1000 mg qd, oral, preliminary data not yet confirmed",PR^#
same,Duration on pazopanib (weeks),Solid Tumors; [10],40+ weeks
same,Response,Solid Tumors; [10],SD
same,Response,"Solid Tumors; patient with Renal cell carcinoma, 300 mg bid, oral (40+ weeks patient)",MR
same,Response,"Solid Tumors; patient with Renal cell carcinoma, 300 mg bid, oral (52+ weeks patient)",PR
same,Duration on pazopanib (weeks),"Solid Tumors; patient with Renal cell carcinoma, 300 mg bid, oral, response MR",40+ weeks
same,Duration on pazopanib (weeks),"Solid Tumors; patient with Renal cell carcinoma, 300 mg bid, oral, response PR",52+ weeks
same,Response,"Solid Tumors; patient with Renal cell carcinoma, 800 mg qd, oral (12+ weeks patient)",SD
same,Duration on pazopanib (weeks),Solid Tumors; [11],19 weeks
same,Response,Solid Tumors; [11],SD (MR)*
same,Duration on pazopanib (weeks),"Solid Tumors; patient with Renal cell carcinoma, 800 mg qd, oral, response SD",12+ weeks
same,Duration on pazopanib (weeks),Solid Tumors; [12],24 weeks
same,Response,Solid Tumors; [12],SD (MR)
same,Duration on pazopanib (weeks),Solid Tumors; [13],40 weeks
same,Response,Solid Tumors; [13],SD (MR)
